Results taken from patent publication US20210221832A1, “SUBSTITUTED PYRIDOINDOLES FOR THE TREATMENT AND PROPHYLAXIS OF BACTERIAL INFECTION” (Hoffmann-La Roche Inc., priority 2018, published 2021).
Values after ≈ are worked out from the molar mass of the structure shown.

Assays:
[1] = Lyophilisation Solubility Assay (LYSA); format: physicochemical; details: aqueous buffer, thermodynamic from solid; 0.05 M phosphate buffer, pH 6.5
Experimental: The solubility of compounds of present invention was assessed by LYSA assay. Samples were prepared in duplicate from 10 mM DMSO stock solutions (20 μL) diluted in 30 μL pure DMSO. After evaporation of DMSO with a centrifugal vacuum evaporator, the residue was dissolved in 0.05 M phosphate buffer (150 μL, pH 6.5), which was stirred for one hour and shook for two hours. After one night, the solution was filtered using a microtiter filter plate. Then the filtrate and its 1/10 dilution were analyzed by HPLC-UV. In addition, a four-point calibration curve was prepared from the 10 mM stock solutions and used for the solubility determination of the compounds.

[2] = Plasma stability assay in human plasma; format: in vitro ADME; details: 10 μM prodrug, 37° C., prodrug remaining at 30 min compared to 0 min
Experimental: (§1) The degradation of prodrug and formation of active drug of present invention were monitored by current plasma stability assay. The assay is conducted in human plasma (purchased from Bioreclamation, Lot No. BRH1380385) or mouse plasma (prepared in-house using CD-1 mouse purchased from Vital River). Plasma is spiked with the test prodrug (10 μM final concentration) dissolved in DMSO (or water) and incubated at 37° C. Aliquots are removed at 0, 5, 15 and 30 minutes of incubation time, quenched with appropriate volume of internal standard solution (I.S., 0.2 μM of tolbutamide, prepared in ACN and water (1:1, v/v)), according to the mass spectrometer intensity of both analytes. Samples are centrifuged, the supernatant are removed and analyzed by LC-MS/MS. The degradation of prodrug was illustrated by calculation of percent remaining of prodrug at 30 min compared to that at 0 min (Table 2).

[3] = Plasma stability assay in mouse plasma; format: in vitro ADME, CD-1 mouse; details: 10 μM prodrug, 37° C., prodrug remaining at 30 min compared to 0 min
Experimental: as §1

[4] = test system: S. aureus (ATCC29213); experiment: 50% Growth Inhibitory Concentration (IC50) Determination Assay, S. aureus; format: cell-based; details: Staphylococcus aureus, growth inhibition, Iso-Sensitest broth, OD 600 nm over 16 h
Experimental: (§2) The in vitro antimicrobial activity of the compounds against S. aureus (ATCC29213), K. pneumoniae (ATCC10031), and A. baumannii (ATCC17978), was determined according to the following procedure: The assay used a 10-points Iso-Sensitest broth medium to measure quantitatively the in vitro activity of the compounds against S. aureus ATCC29213, K. pneumoniae ATCC 10031, and A. baumannii ATCC 17978. Stock compounds in DMSO were serially two-fold diluted (range from 50 to 0.097 μM final concentration) in 384 wells microtiter plates and inoculated with 49 μL the bacterial suspension in Iso-Sensitest broth medium to have a final cell concentration of 5×10^5 CFU/mL in a final volume/well of 50 μL/well. Microtiter plates were incubated at 35±2° C. Bacterial cell growth was determined with the measurement of optical density at λ=600 nm each 20 minutes over a time course of 16 h. Growth inhibition was calculated during the logarithmic growth of the bacterial cells with determination of the concentration inhibiting 50% (IC50) of the growth. The parent compounds of the present invention were tested for their concentration inhibiting 50% (IC50). The data of IC50 over S. aureus (ATCC29213), K. pneumoniae (ATCC10031), and A. baumannii (ATCC17978) are illustrated in Table 6.

[5] = test system: K. pneumoniae (ATCC10031); experiment: 50% Growth Inhibitory Concentration (IC50) Determination Assay, K. pneumoniae; format: cell-based; details: Klebsiella pneumoniae, growth inhibition, Iso-Sensitest broth, OD 600 nm over 16 h
Experimental: as §2

[6] = test system: A. baumannii (ATCC17978); experiment: 50% Growth Inhibitory Concentration (IC50) Determination Assay, A. baumannii; format: cell-based; details: Acinetobacter baumannii, growth inhibition, Iso-Sensitest broth, OD 600 nm over 16 h
Experimental: as §2

Compound | solubility [1] | Percent Remaining (%) H [2] | Percent Remaining (%) M [3] | IC50 [4] | IC50 [5] | IC50 [6]
CN1C[C@@H]2CCN(c3c(-c4cnc5c(c4)c(=O)c(C(=O)O)cn5C)cnc4[nH]c5c(N(C)C(=O)OCOC(=O)/C=C/C(=O)O)cc(F)c(C#N)c5c34)[C@@H]2C1 [Example 1.02, 6-[5-Cyano-6-fluoro-8-[methyl-[[(E)-3-carboxyprop-2-enoyl]oxymethoxycarbonyl]amino]-4-[(3aS,6aS)-5-methyl-2,3,3a,4,6,6a-hexahydropyrrolo[2,3-c]pyrrol-1-yl]-9H-pyrido[2,3-b]indol-3-yl]-1-methyl-4-oxo-1,8-naphthyridine-3-carboxylic acid] | > 895 µg/mL | 88.2% | 70.2% | – | – | –
CNc1cc(F)c(C#N)c2c1[nH]c1ncc(-c3cnc4c(c3)c(=O)c(C(=O)O)cn4C)c(N3CC[C@H]4CN(C)C[C@H]43)c12 [Example 1.03D, 6-[5-cyano-6-fluoro-8-(methylamino)-4-[(3aS,6aS)-5-methyl-2,3,3a,4,6,6a-hexahydropyrrolo[2,3-c]pyrrol-1-yl]-9H-pyrido[2,3-b]indol-3-yl]-1-methyl-4-oxo-1,8-naphthyridine-3-carboxylic acid] | 194 µg/mL (≈ 342 µM) | – | – | < 0.098 µM | < 0.098 µM | 0.045 µM
CNc1cc(F)c(C#N)c2c3c(N4CC[C@H]5CN(C)C[C@H]54)c(-c4cnc5c(c4)c(=O)c(C(=O)O)cn5C)cn(COP(=O)(O)O)c-3nc12 [Example 1.04, 6-[5-Cyano-6-fluoro-8-(methylamino)-1-(phosphonooxymethyl)-4-[(3aS,6aS)-5-methyl-2,3,3a,4,6,6a-hexahydropyrrolo[2,3-c]pyrrol-1-yl]pyrido[2,3-b]indol-3-yl]-1-methyl-4-oxo-1,8-naphthyridine-3-carboxylic acid] | > 950 µg/mL | 95.9% | 79.1% | – | – | –
CNc1cc(F)c(C#N)c2c1[nH]c1ncc(-c3cnc4c(c3)c(=O)c(C(=O)OCCOC(=O)[C@@H](N)C(C)C)cn4C)c(N3CC[C@H]4CN(C)C[C@H]43)c12 [Example 1.08, 2-[(2S)-2-Amino-3-methyl-butanoyl]oxyethyl 6-[5-cyano-6-fluoro-8-(methylamino)-4-[(3aS,6aS)-5-methyl-2,3,3a,4,6,6a-hexahydropyrrolo[2,3-c]pyrrol-1-yl]-9H-pyrido[2,3-b]indol-3-yl]-1-methyl-4-oxo-1,8-naphthyridine-3-carboxylate] | 480 µg/mL (≈ 676 µM) | 22.3% | 1.3% | – | – | –
CN1C[C@H]2CCN(c3c(-c4cnc5c(c4)c(=O)c(C(=O)O)cn5C)cnc4[nH]c5c(N(C)C(=O)OCOC(=O)/C=C/C(=O)O)cc(F)c(F)c5c34)[C@H]2C1 [Example 1.21, 6-[5,6-Difluoro-8-[methyl-[[(E)-3-carboxyprop-2-enoyl]oxymethoxycarbonyl]amino]-4-[(3aR,6aR)-5-methyl-2,3,3a,4,6,6a-hexahydropyrrolo[2,3-c]pyrrol-1-yl]-9H-pyrido[2,3-b]indol-3-yl]-1-methyl-4-oxo-1,8-naphthyridine-3-carboxylic acid] | – | 88.7% | 56.0% | – | – | –

Further lines, results first:

solubility [1] | Percent Remaining (%) H [2] | Percent Remaining (%) M [3] | IC50 [4] | IC50 [5] | IC50 [6] | Compound
137 µg/mL (≈ 245 µM) | – | – | < 0.098 µM | < 0.098 µM | 0.039 µM | CNc1cc(F)c(F)c2c1[nH]c1ncc(-c3cnc4c(c3)c(=O)c(C(=O)O)cn4C)c(N3CC[C@H]4CN(C)C[C@H]43)c12 [Example 1.26E, 6-[5,6-difluoro-8-(methylamino)-4-[(3aS,6aS)-5-methyl-2,3,3a,4,6,6a-hexahydropyrrolo[2,3-c]pyrrol-1-yl]-9H-pyrido[2,3-b]indol-3-yl]-1-methyl-4-oxo-1,8-naphthyridine-3-carboxylic acid]
54 µg/mL (≈ 99.2 µM) | – | – | < 0.098 µM | < 0.098 µM | < 0.098 µM | CNc1cc(F)c(F)c2c1[nH]c1ncc(-c3ccc4ccc(C(=O)O)c(=O)n4c3)c(N3CC[C@H]4CN(C)C[C@H]43)c12 [Example 1.34D, 7-[5,6-difluoro-8-(methylamino)-4-[(3aS,6aS)-5-methyl-2,3,3a,4,6,6a-hexahydropyrrolo[2,3-c]pyrrol-1-yl]-9H-pyrido[2,3-b]indol-3-yl]-4-oxo-quinolizine-3-carboxylic acid]
– | 98.4% | 0.1% | – | – | – | CNc1cc(F)c(F)c2c1[nH]c1ncc(-c3ccc4ccc(C(=O)OC(C)OC(=O)OC(C)C)c(=O)n4c3)c(N3CC[C@H]4CN(C)C[C@H]43)c12 (stereo partly drawn) [Example 1.39, 1-Isopropoxycarbonyloxyethyl 7-[5,6-difluoro-8-(methylamino)-4-[(3aS,6aS)-5-methyl-2,3,3a,4,6,6a-hexahydropyrrolo[2,3-c]pyrrol-1-yl]-9H-pyrido[2,3-b]indol-3-yl]-4-oxo-quinolizine-3-carboxylate]
